What was measured:
[1] = system: K. pneumoniae ATCC 10031 (SEN) and K. pneumoniae ATCC 700603 (MDR); assay: Adaptive laboratory evolution (ALE), relative MIC of evolved lines; format: cell-based, Klebsiella pneumoniae
Procedure, shortened: (§1)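 Ten parallel populations per antibiotic–ancestor pair were evolved in MHB at 37 °C, starting near 50% growth-inhibiting drug. Every 72 h they were passaged into 0.5–2.5× increasing concentrations, keeping the highest-drug well with OD600 > 0.2.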

[2] = system: A. baumannii ATCC 17978 (SEN) and A. baumannii ATCC BAA-1605 (MDR); assay: as above; format: cell-based, Acinetobacter baumannii
Procedure, shortened: as §1

CN(C)[C@@H]1C(O)=C(C(N)=O)C(=O)[C@@]2(O)C(O)=C3C(=O)c4c(O)c(NC(=O)CN5CCCC5)cc(F)c4C[C@H]3C[C@@H]12 [Eravacycline]
Relative MIC ([1]; KP-MDR (ATCC 700603), evolved line 1, MIC of evolved line / MIC of ancestor): 8
Relative MIC ([1]; KP-MDR (ATCC 700603), evolved line 2, MIC of evolved line / MIC of ancestor): 8
Relative MIC ([1]; KP-MDR (ATCC 700603), evolved line 3, MIC of evolved line / MIC of ancestor): 16
Relative MIC ([1]; KP-MDR (ATCC 700603), evolved line 4, MIC of evolved line / MIC of ancestor): 8
Relative MIC ([1]; KP-MDR (ATCC 700603), evolved line 5, MIC of evolved line / MIC of ancestor): 8
Relative MIC ([1]; KP-MDR (ATCC 700603), evolved line 6, MIC of evolved line / MIC of ancestor): 8
Relative MIC ([1]; KP-MDR (ATCC 700603), evolved line 7, MIC of evolved line / MIC of ancestor): 8
Relative MIC ([1]; KP-MDR (ATCC 700603), evolved line 8, MIC of evolved line / MIC of ancestor): 16
Relative MIC ([1]; KP-MDR (ATCC 700603), evolved line 9, MIC of evolved line / MIC of ancestor): 8
Relative MIC ([1]; KP-MDR (ATCC 700603), evolved line 10, MIC of evolved line / MIC of ancestor): 8
Relative MIC (log10) ([1]; KP-MDR (Klebsiella pneumoniae ATCC 700603), evolved line 1 adapted to the named antibiotic): 0.9031
Relative MIC (log10) ([1]; KP-MDR (Klebsiella pneumoniae ATCC 700603), evolved line 3 adapted to the named antibiotic): 1.204
Relative MIC (log10) ([1]; KP-MDR (Klebsiella pneumoniae ATCC 700603), evolved line 4 adapted to the named antibiotic): 0.9031
Relative MIC (log10) ([1]; KP-MDR (Klebsiella pneumoniae ATCC 700603), evolved line 8 adapted to the named antibiotic): 1.204
Relative MIC (log10) ([1]; KP-MDR (Klebsiella pneumoniae ATCC 700603), evolved line 9 adapted to the named antibiotic): 0.9031
Relative MIC ([1]; KP-SEN (ATCC 10031), evolved line 1, evolved vs ancestor): 512
Relative MIC ([1]; KP-SEN (ATCC 10031), evolved line 3, evolved vs ancestor): 256
Relative MIC ([1]; KP-SEN (ATCC 10031), evolved line 4, evolved vs ancestor): 64
Relative MIC ([1]; KP-SEN (ATCC 10031), evolved line 7, evolved vs ancestor): 64
Relative MIC ([1]; KP-SEN (ATCC 10031), evolved line 9, evolved vs ancestor): 256
Relative MIC ([1]; KP-SEN (ATCC 10031), evolved line 10, evolved vs ancestor): 512
Relative MIC (log10) ([1]; KP-SEN (Klebsiella pneumoniae ATCC 10031), evolved line 1): 2.709 log10
Relative MIC (log10) ([1]; KP-SEN (Klebsiella pneumoniae ATCC 10031), evolved line 3): 2.408 log10
Relative MIC (log10) ([1]; KP-SEN (Klebsiella pneumoniae ATCC 10031), evolved line 9): 2.408 log10
Relative MIC (log10) ([1]; KP-SEN (Klebsiella pneumoniae ATCC 10031), evolved line 10): 2.709 log10
Relative MIC (log10) ([1]; KP-SEN, Klebsiella pneumoniae ATCC 10031, evolved line 7): 1.806 log10
Relative MIC ([1]; Klebsiella pneumoniae ATCC 10031 (KP-SEN), evolved line 1): 512
Relative MIC ([1]; Klebsiella pneumoniae ATCC 10031 (KP-SEN), evolved line 3): 256
Relative MIC ([1]; Klebsiella pneumoniae ATCC 10031 (KP-SEN), evolved line 4): 64
Relative MIC ([1]; Klebsiella pneumoniae ATCC 10031 (KP-SEN), evolved line 7): 64
Relative MIC ([1]; Klebsiella pneumoniae ATCC 10031 (KP-SEN), evolved line 9): 256
Relative MIC ([1]; Klebsiella pneumoniae ATCC 10031 (KP-SEN), evolved line 10): 512
Relative MIC ([1]; Klebsiella pneumoniae ATCC 700603 (KP-MDR), evolved line 1): 8
Relative MIC ([1]; Klebsiella pneumoniae ATCC 700603 (KP-MDR), evolved line 2): 8
Relative MIC ([1]; Klebsiella pneumoniae ATCC 700603 (KP-MDR), evolved line 3): 16
Relative MIC ([1]; Klebsiella pneumoniae ATCC 700603 (KP-MDR), evolved line 4): 8
Relative MIC ([1]; Klebsiella pneumoniae ATCC 700603 (KP-MDR), evolved line 5): 8
Relative MIC ([1]; Klebsiella pneumoniae ATCC 700603 (KP-MDR), evolved line 6): 8
Relative MIC ([1]; Klebsiella pneumoniae ATCC 700603 (KP-MDR), evolved line 7): 8
Relative MIC ([1]; Klebsiella pneumoniae ATCC 700603 (KP-MDR), evolved line 8): 16
Relative MIC ([1]; Klebsiella pneumoniae ATCC 700603 (KP-MDR), evolved line 9): 8
Relative MIC ([1]; Klebsiella pneumoniae ATCC 700603 (KP-MDR), evolved line 10): 8
Relative MIC ([2]; AB-MDR (ATCC BAA 1605), evolved line 1, MIC of evolved line / MIC of ancestor): 16
Relative MIC ([2]; AB-MDR (ATCC BAA 1605), evolved line 2, MIC of evolved line / MIC of ancestor): 32
Relative MIC ([2]; AB-MDR (ATCC BAA 1605), evolved line 3, MIC of evolved line / MIC of ancestor): 32
Relative MIC ([2]; AB-MDR (ATCC BAA 1605), evolved line 4, MIC of evolved line / MIC of ancestor): 32
Relative MIC ([2]; AB-MDR (ATCC BAA 1605), evolved line 5, MIC of evolved line / MIC of ancestor): 16
Relative MIC ([2]; AB-MDR (ATCC BAA 1605), evolved line 6, MIC of evolved line / MIC of ancestor): 32
Relative MIC ([2]; AB-MDR (ATCC BAA 1605), evolved line 7, MIC of evolved line / MIC of ancestor): 32
Relative MIC ([2]; AB-MDR (ATCC BAA 1605), evolved line 8, MIC of evolved line / MIC of ancestor): 32
Relative MIC ([2]; AB-MDR (ATCC BAA 1605), evolved line 9, MIC of evolved line / MIC of ancestor): 32
Relative MIC ([2]; AB-MDR (ATCC BAA 1605), evolved line 10, MIC of evolved line / MIC of ancestor): 32
Relative MIC (log10) ([2]; AB-MDR (Acinetobacter baumannii ATCC BAA 1605), evolved line 2 adapted to the named antibiotic): 1.505
Relative MIC (log10) ([2]; AB-MDR (Acinetobacter baumannii ATCC BAA 1605), evolved line 3 adapted to the named antibiotic): 1.505
Relative MIC (log10) ([2]; AB-MDR (Acinetobacter baumannii ATCC BAA 1605), evolved line 4 adapted to the named antibiotic): 1.505
Relative MIC (log10) ([2]; AB-MDR (Acinetobacter baumannii ATCC BAA 1605), evolved line 6 adapted to the named antibiotic): 1.505
Relative MIC (log10) ([2]; AB-MDR (Acinetobacter baumannii ATCC BAA 1605), evolved line 10 adapted to the named antibiotic): 1.505
Relative MIC ([2]; AB-SEN (ATCC 17978), evolved line 1, MIC of evolved line / MIC of ancestor): 64
Relative MIC ([2]; AB-SEN (ATCC 17978), evolved line 2, MIC of evolved line / MIC of ancestor): 128
Relative MIC ([2]; AB-SEN (ATCC 17978), evolved line 3, MIC of evolved line / MIC of ancestor): 128
Relative MIC ([2]; AB-SEN (ATCC 17978), evolved line 4, MIC of evolved line / MIC of ancestor): 128
Relative MIC ([2]; AB-SEN (ATCC 17978), evolved line 5, MIC of evolved line / MIC of ancestor): 128
Relative MIC ([2]; AB-SEN (ATCC 17978), evolved line 6, MIC of evolved line / MIC of ancestor): 128
Relative MIC ([2]; AB-SEN (ATCC 17978), evolved line 7, MIC of evolved line / MIC of ancestor): 128
Relative MIC ([2]; AB-SEN (ATCC 17978), evolved line 8, MIC of evolved line / MIC of ancestor): 64
Relative MIC ([2]; AB-SEN (ATCC 17978), evolved line 9, MIC of evolved line / MIC of ancestor): 128
Relative MIC ([2]; AB-SEN (ATCC 17978), evolved line 10, MIC of evolved line / MIC of ancestor): 128
Relative MIC (log10) ([2]; AB-SEN (Acinetobacter baumannii ATCC 17978), evolved line 2 adapted to the named antibiotic): 2.107
Relative MIC (log10) ([2]; AB-SEN (Acinetobacter baumannii ATCC 17978), evolved line 4 adapted to the named antibiotic): 2.107
Relative MIC (log10) ([2]; AB-SEN (Acinetobacter baumannii ATCC 17978), evolved line 6 adapted to the named antibiotic): 2.107
Relative MIC (log10) ([2]; AB-SEN (Acinetobacter baumannii ATCC 17978), evolved line 8 adapted to the named antibiotic): 1.806
Relative MIC (log10) ([2]; AB-SEN (Acinetobacter baumannii ATCC 17978), evolved line 9 adapted to the named antibiotic): 2.107
Relative MIC ([2]; Acinetobacter baumannii ATCC 17978 (AB-SEN), evolved line 1): 64
Relative MIC ([2]; Acinetobacter baumannii ATCC 17978 (AB-SEN), evolved line 2): 128
Relative MIC ([2]; Acinetobacter baumannii ATCC 17978 (AB-SEN), evolved line 3): 128
Relative MIC ([2]; Acinetobacter baumannii ATCC 17978 (AB-SEN), evolved line 4): 128
Relative MIC ([2]; Acinetobacter baumannii ATCC 17978 (AB-SEN), evolved line 5): 128
Relative MIC ([2]; Acinetobacter baumannii ATCC 17978 (AB-SEN), evolved line 6): 128
Relative MIC ([2]; Acinetobacter baumannii ATCC 17978 (AB-SEN), evolved line 7): 128
Relative MIC ([2]; Acinetobacter baumannii ATCC 17978 (AB-SEN), evolved line 8): 64
Relative MIC ([2]; Acinetobacter baumannii ATCC 17978 (AB-SEN), evolved line 9): 128
Relative MIC ([2]; Acinetobacter baumannii ATCC 17978 (AB-SEN), evolved line 10): 128
Relative MIC ([2]; Acinetobacter baumannii ATCC BAA 1605 (AB-MDR), evolved line 2): 32
Relative MIC ([2]; Acinetobacter baumannii ATCC BAA 1605 (AB-MDR), evolved line 4): 32
Relative MIC ([2]; Acinetobacter baumannii ATCC BAA 1605 (AB-MDR), evolved line 5): 16
Relative MIC ([2]; Acinetobacter baumannii ATCC BAA 1605 (AB-MDR), evolved line 6): 32
Relative MIC ([2]; Acinetobacter baumannii ATCC BAA 1605 (AB-MDR), evolved line 7): 32
Relative MIC ([2]; Acinetobacter baumannii ATCC BAA 1605 (AB-MDR), evolved line 8): 32
Relative MIC ([2]; Acinetobacter baumannii ATCC BAA 1605 (AB-MDR), evolved line 9): 32
Relative MIC ([2]; Acinetobacter baumannii ATCC BAA 1605 (AB-MDR), evolved line 10): 32
Relative MIC ([2]; Acinetobacter baumannii ATCC BAA 1605 (AB-MDR), evolved line 1): 16
Relative MIC ([2]; Acinetobacter baumannii ATCC BAA 1605 (AB-MDR), evolved line 3): 32
